This is an account of results in patent US5665515A, “Method for obtaining a printing plate according to the silver salt diffusion transfer process” (Agfa-Gevaert N.V., priority 1994, dated 1997).

For orientation: pKa means the pH at which an ionisable group is half protonated. Higher therefore signals a group that holds its proton tightly.

This series can be described thus: pKa of the mercapto group by titration with hydrochloric acid in water. The class given is physicochemical. The following applies: 0.002 mole/liter, dissolved at pH 11, titrated with 0.1 mole/liter hydrochloric acid. How it is done:
The pKa of the mercapto-compounds in connection with the present invention were determined according to the method described in "Ionization Constants of Acids and Bases--A Laboratory Manual" written by Adrien Albert and E. P. Serjeant and Edited by John Wiley & Sons (New York) page 110-112 (1962).
In these particular cases, the compounds were dissolved in water at pH 11. The concentration of the compounds was 0.002 mole/liter and the mixture was then titrated with a solution of hydrochloric acid (0.1 mole/liter).
`CCCCn1nnnc1S` [compound 5]: the pKa was determined as 3.2.
`CCCCN(CCCC)C(=O)Cn1nnnc1S` [compound 2] had a pKa of 3.3.
The figure for `Sc1nnnn1-c1ccccc1` [compound 6] is 3.1; for `CCCCCCCCn1nnnc1S` [compound 4] it is 3.4.
